Test results: PMC10361207, “Cannabinoid and Opioid Receptor Affinity and Modulation of Cancer-Related Signaling Pathways of Machaeriols and Machaeridiols from Machaerium Pers” (Molecules, 2023)
≈ marks a conversion by molar mass, not a printed value. Entries after “also recorded” stand apart in the source; their conditions may differ.

What was measured:
[1] = Cytotoxicity, Neutral Red, SK-OV-3; format: cell-based; settings: human, SK-OV-3 ovary carcinoma cells, Na = not active up to 50 µg/mL
Method: (§1) In vitro cytotoxic activity was determined against five human cancer cell lines—malignant melanoma (SK-MEL), epidermal carcinoma oral (KB), ductal carcinoma breast (BT-549), ovary carcinoma (SKOV-3) and cervical (HeLa) cancer cells—and two non-cancerous kidney cell lines (LLC-PK1 and Vero). All cell lines were obtained from the American Type Culture Collection (ATCC, Rockville, MD, USA). Each assay was performed in 96-well tissue culture-treated microplates. The cells were seeded at a density of 25,000 cells/well and incubated for 24 h. Samples at different concentrations were added, and the cells were incubated again for 48 h. At the end of the incubation, the cell viability was determined using Neutral Red dye according to a modification of the procedure used by Borenfreund et al.. IC50 values were determined from dose–response curves of the percent growth inhibition against test concentrations. Doxorubicin was used as a positive control, while DMSO was used as the negative (vehicle) control.

[2] = Cytotoxicity, Neutral Red, HeLa; format: cell-based; settings: human, HeLa cervical cancer cells, Na = not active up to 50 µg/mL
Method: as §1

[3] = Cytotoxicity, Neutral Red, SK-MEL; format: cell-based; settings: human, SK-MEL malignant melanoma cells, Na = not active up to 50 µg/mL
Method: as §1

[4] = Cytotoxicity, Neutral Red, KB; format: cell-based; settings: human, KB epidermal carcinoma (oral) cells, Na = not active up to 50 µg/mL
Method: as §1

[5] = Cytotoxicity, Neutral Red, Vero; format: cell-based; settings: monkey, Vero kidney fibroblasts, Na = not active up to 50 µg/mL
Method: as §1

[6] = Cytotoxicity, Neutral Red, BT-549; format: cell-based; settings: human, BT-549 breast ductal carcinoma cells, Na = not active up to 50 µg/mL
Method: as §1

[7] = Cytotoxicity, Neutral Red, LLC-PK1; format: cell-based; settings: pig, LLC-PK1 kidney epithelial cells, Na = not active up to 50 µg/mL
Method: as §1

[8] = system: Stat3; assay: Luciferase reporter assay, Stat3, HeLa; format: cell-based, human; settings: Homo sapiens; HeLa cells; inducer IL6; dash: not inhibited by more than 40% at 50 µmol/L
Method: (§2) Hela cells (or T98G cells) from ATCC were plated in white opaque 384-well plates at a density of 4300 cells/well in 30 µL of growth medium (DMEM with 10% FBS and 1% Pen/Strep). The next day, the medium was aspirated and replaced with DMEM containing 1% FBS. The cells were transfected with respective plasmids using X-tremeGENE HP DNA transfection reagent (Roche). After 24 h of transfection, the test agents were added to the transfected cells, followed 30 min later by an inducing agent: interleukin 6 (IL-6) for Stat3, TGF-β for Smad, m-wnt3a for Wnt and PMA for AP-1, NF-κB, E2F, Myc, ETS, Notch and Hedgehog. No inducer was added for FoXO and pTK. After 4 h or 6 h of induction, the cells were lysed via the addition of the One-Glo luciferase assay system (Promega; Madison, WI). The light output was detected in a GloMax®-Multi+ Detection System with Instinct® Software (Promega E 8051). This luciferase assay determines if the test agent is able to inhibit the activation of cancer-related signaling pathways. In the case of FoxO, the enhanced luciferase activity via the test agent was assessed.

[9] = system: Notch; assay: Luciferase reporter assay, Notch, HeLa; format: cell-based; settings: Homo sapiens; HeLa cells; inducer PMA; dash: not inhibited by more than 40% at 50 µmol/L
Method: as §2

[10] = target: T1, CB1 receptor (Homo sapiens, UniProt P21554); assay: Competitive radioligand binding assay, CB1; settings: for Percent displacement, CB1: 10 μM, [3H]-CP55,940
T1 construct: expressed in transfected cells; host or cells: HEK293 (ATCC), stably transfected; membranes
T1 sequence (P21554 whole entry): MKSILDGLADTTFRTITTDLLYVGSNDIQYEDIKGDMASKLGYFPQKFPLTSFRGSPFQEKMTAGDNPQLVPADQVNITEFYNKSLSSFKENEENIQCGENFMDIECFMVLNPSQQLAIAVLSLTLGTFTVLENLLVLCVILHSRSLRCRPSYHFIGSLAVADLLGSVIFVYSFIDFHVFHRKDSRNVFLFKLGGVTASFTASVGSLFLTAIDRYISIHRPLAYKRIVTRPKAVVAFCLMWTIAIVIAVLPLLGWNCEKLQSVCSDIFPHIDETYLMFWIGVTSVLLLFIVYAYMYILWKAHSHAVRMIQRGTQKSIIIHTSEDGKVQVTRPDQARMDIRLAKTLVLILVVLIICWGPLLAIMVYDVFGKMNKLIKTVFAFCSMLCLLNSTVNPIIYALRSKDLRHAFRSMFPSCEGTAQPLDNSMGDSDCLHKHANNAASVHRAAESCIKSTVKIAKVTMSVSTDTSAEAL
Method: (§3) HEK293 cells stably transfected with δ, κ and μ opioid subtypes were a generous gift from Roth Laboratories (University of North Carolina at Chapel Hill, N.C., USA). CB and opioid cells were maintained as previously described.
(§4) Membranes were purified by first washing the cells with cold PBS and scraping the cells into cold 50 mM Tris-HCl, pH 7.4 buffer, which was centrifuged at 5200× g for 10 min at 4 °C; next, the supernatant was discarded, and the pellet was washed with more Tris-HCl buffer, homogenized via a Sonic Dismembrator (Fisher Scientific, Pittsburgh, PA, USA) and then centrifuged at 24,000× g for 40 min at 4 °C. Finally, the pellet was re-suspended in cold 50 mM Tris-HCl buffer, aliquoted into 2 mL vials and stored at −80 °C. The total membrane protein concentration was measured using a Pierce BCA Protein Assay Kit (Thermo Scientific, Rockford, IL, USA) as per the manufacturer’s protocol.
(§5) Cannabinoid and opioid competitive radioligand binding assays were performed as previously described. Saturation experiments were performed for all the receptors to determine the receptor concentration and radioligand dissociation constant (Kd) for the membrane. Percent displacements were evaluated for all the cannabinoid and opioid subtypes with a triplicate of a fixed concentration (10 µg/mL for extracts and fractions and 10 μM for purified compounds). […] Control/test compounds were dissolved in DMSO at 10 μg/mL for extracts and fractions and 10 μM for purified compounds. […] The percent displacement was calculated to represent the ability of the samples to displace the radioligand binding for a given cannabinoid or opioid receptor subtype.
(§6) The percent displacement was calculated as follows: 100−binding of compound−nonspecific binding/specific binding×100
(§7) The competitive binding assays were performed using 12 serial dilutions of each compound ranging from 0.002 to 300 μM (control compounds were serially diluted from 10 μM to 0.06 nM). The cannabinoid assays were incubated for 90 min at 37 °C with gentle agitation. The opioid assays were incubated for 60 min at room temperature. Bound radioligands were collected on GF/C (cannabinoid) or GF/B plates (opioid) and washed 10 times with ice-cold 50 mM Tris-HCl (pH 7.4)/0.1% BSA (cannabinoid) or ice-cold 50 mM Tris-HCl (pH 7.4) (opioid). Radiodetection was measured with 50 µL (cannabinoid) or 25 µL (opioid) of MicroScint^TM-20 on a TopCount NXT HTS Microplate Scintillation Counter (PerkinElmer, Waltham, MA, USA). The IC50 and Ki values were calculated via a non-linear curve fit model using GraphPad Prism 5.0 software (GraphPad Software, Inc., San Diego, CA, USA). Each compound was tested in triplicate unless stated otherwise.

[11] = system: NF-κB; assay: Luciferase reporter assay, NF-κB, HeLa; format: cell-based; settings: Homo sapiens; HeLa cells; inducer PMA; dash: not inhibited by more than 40% at 50 µmol/L
Method: as §2

[12] = system: Smad2/3; assay: Luciferase reporter assay, Smad2/3, HeLa; format: cell-based, human; settings: Homo sapiens; HeLa cells; inducer TGF-beta; dash: not inhibited by more than 40% at 50 µmol/L
Method: as §2

[13] = system: E2F; assay: Luciferase reporter assay, E2F, HeLa; format: cell-based, human; settings: Homo sapiens, HeLa, read-out: IC50, E2F (PMA)
Method: as §2

[14] = system: Hedgehog; assay: Luciferase reporter assay, Hedgehog, HeLa; format: cell-based, human; settings: Homo sapiens; HeLa cells; inducer PMA; dash: not inhibited by more than 40% at 50 µmol/L
Method: as §2

[15] = target: T2, δ opioid receptor (Homo sapiens, UniProt P41143); assay: Competitive radioligand binding assay, δ opioid; settings: for inhibition at 10 µM: [3H]-enkephalin (DPDPE), read-out: Percent displacement, Δ; for Ki: NA = not active, read-out: Δ Ki ± SEM
T2 construct: host or cells: HEK293, stably transfected; membranes
T2 sequence (P41143 whole entry): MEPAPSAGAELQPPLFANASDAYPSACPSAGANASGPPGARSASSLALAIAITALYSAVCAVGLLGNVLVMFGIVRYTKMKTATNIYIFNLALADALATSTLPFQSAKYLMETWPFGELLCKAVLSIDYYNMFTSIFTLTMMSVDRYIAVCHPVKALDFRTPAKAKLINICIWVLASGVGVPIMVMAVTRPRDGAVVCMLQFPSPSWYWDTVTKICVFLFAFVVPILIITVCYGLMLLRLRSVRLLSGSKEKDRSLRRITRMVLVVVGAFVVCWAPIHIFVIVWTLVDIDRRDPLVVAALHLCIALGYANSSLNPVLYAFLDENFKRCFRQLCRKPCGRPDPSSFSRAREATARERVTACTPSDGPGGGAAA
Method: as §3, §4, §5, §6, §7

[16] = system: Myc; assay: Luciferase reporter assay, Myc, HeLa; format: cell-based; settings: Homo sapiens; HeLa cells; inducer PMA; dash: not inhibited by more than 40% at 50 µmol/L
Method: as §2

[17] = system: Wnt; assay: Luciferase reporter assay, Wnt, HeLa; format: cell-based; settings: Homo sapiens; HeLa cells; inducer m-wnt3a; dash: not inhibited by more than 40% at 50 µmol/L
Method: as §2

[18] = system: AP-1; assay: Luciferase reporter assay, AP-1, HeLa; format: cell-based, human; settings: Homo sapiens, read-out: IC50, Ap-1 (PMA)
Method: as §2

[19] = target: T3, μ opioid receptor (Homo sapiens, UniProt P35372); assay: biochemical; format: binding; settings: for Percent displacement, µ: 10 μM, [3H]-DAMGO; for Ki: NA = not active, read-out: μ Ki ± SEM
T3 construct: host or cells: HEK293, stably transfected; membranes
T3 sequence (P35372 whole entry): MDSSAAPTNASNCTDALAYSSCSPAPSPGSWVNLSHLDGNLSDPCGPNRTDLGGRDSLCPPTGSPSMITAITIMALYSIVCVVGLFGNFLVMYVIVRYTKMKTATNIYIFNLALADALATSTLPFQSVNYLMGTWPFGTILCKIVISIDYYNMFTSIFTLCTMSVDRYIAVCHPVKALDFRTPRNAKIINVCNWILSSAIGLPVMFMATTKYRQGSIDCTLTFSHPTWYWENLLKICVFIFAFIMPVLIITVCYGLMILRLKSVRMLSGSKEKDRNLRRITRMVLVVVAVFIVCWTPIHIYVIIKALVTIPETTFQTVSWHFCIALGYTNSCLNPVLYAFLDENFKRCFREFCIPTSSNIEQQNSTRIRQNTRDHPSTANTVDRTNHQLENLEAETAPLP
Method: as §3, §4, §5, §6, §7

[20] = system: cannabinoid receptor 1 (CB1 receptor); settings: earlier studies; cited from earlier work
[21] = system: ETS; assay: Luciferase reporter assay, ETS, HeLa; format: cell-based, human; settings: Homo sapiens; HeLa cells; inducer PMA; dash: not inhibited by more than 40% at 50 µmol/L
Method: as §2

[22] = target: T4, CB2 receptor (Homo sapiens, UniProt P34972); assay: Competitive radioligand binding assay, CB2; settings: for Percent displacement, CB2: 10 μM, [3H]-CP55,940; for Ki: * tested up to solubility limit, conc. at 33.3 μM and above precipitated, read-out: CB2 Ki ± SEM
T4 construct: expressed in transfected cells; host or cells: HEK293 (ATCC), stably transfected; membranes
T4 sequence (P34972 whole entry): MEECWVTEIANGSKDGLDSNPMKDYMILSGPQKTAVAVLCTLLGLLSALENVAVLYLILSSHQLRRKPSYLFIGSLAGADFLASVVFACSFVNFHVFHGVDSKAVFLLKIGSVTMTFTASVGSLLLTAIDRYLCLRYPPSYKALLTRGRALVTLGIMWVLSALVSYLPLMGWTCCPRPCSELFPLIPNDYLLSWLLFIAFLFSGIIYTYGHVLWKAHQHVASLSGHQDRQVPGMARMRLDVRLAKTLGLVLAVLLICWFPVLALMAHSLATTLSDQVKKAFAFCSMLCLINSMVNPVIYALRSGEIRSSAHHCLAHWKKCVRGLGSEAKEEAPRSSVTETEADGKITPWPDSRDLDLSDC
Method: as §3, §4, §5, §6, §7

[23] = system: FoxO; assay: Luciferase reporter assay, FoxO, HeLa; format: cell-based; settings: Homo sapiens; HeLa cells; no inducer; dash: no activity detected; read-out: IC50, FoxO (None)
Method: as §2

[24] = system: SK-MEL, KB, BT-549, SK-OV-3, HeLa, LLC-PK1 and Vero cells; assay: Cytotoxicity, summary over the cell line panel; format: cell-based; settings: highest tested concentration of 50 µg/mL; most of the cells
Method: as §1

[25] = Solubility in aqueous assay buffer; settings: aqueous buffer of the radioligand binding assay

Row | Compound | IC50 at 48 h [3] [µg/mL] | IC50 at 48 h [4] [µg/mL] | IC50 at 48 h [6] [µg/mL] | IC50 [8] [µM] | IC50 [9] [µM] | Percent displacement, CB1 [10] [%] | IC50 [11] [µM] | IC50 [12] [µM] | IC50 [13] [µM] | IC50 [14] [µM] | inhibition at 10 µM [15] [%] | IC50 [16] [µM] | IC50 [17] [µM] | IC50 [18] [µM] | Percent displacement, µ [19] [%] | IC50 [21] [µM] | Percent displacement, CB2 [22] [%] | IC50 [23] [µM] | Cytotoxicity (in words) [24] | Ki [22] [µM] | also measured
1 | COc1cccc2c1C(=O)c1c(O)c3c(c(O)c1C2=O)C[C@@](O)(C(=O)CO)C[C@@H]3O[C@H]1C[C@H](N)[C@H](O)[C@H](C)O1 [Doxorubicin, reference compound] | 2.2 (≈ 4.05 µM) | 2.4 (≈ 4.42 µM) | 2.4 (≈ 4.42 µM) |  |  |  |  |  |  |  |  |  |  |  |  |  |  |  |  |  | IC50 at 48 h [1]: 2 µg/mL (≈ 3.68 µM); IC50 at 48 h [2]: 4.3 µg/mL (≈ 7.91 µM); IC50 at 48 h [5]: > 5 µg/mL; IC50 at 48 h [7]: 1.1 µg/mL (≈ 2.02 µM)
2 | C[C@H]1CC[C@H]2[C@H](C1)c1c(O)cc(/C=C/c3ccccc3)cc1OC2(C)C [compound 1, machaeriol A] |  |  |  | 14 | 7 | 18.4 | 10.7 | 13.7 | 11 | 8.2 | 1.8 | 8.5 | 11.9 | 12 | 52.9 | 8.5 | 24.4 | > 50 |  |  | Affinity for CB1 (in words) [20]: insignificant affinity; also recorded: did not show any affinity
3 | C=C(C)[C@H]1CC[C@H](C)C[C@@H]1c1c(O)cc(-c2cc3ccccc3o2)cc1O [compound 7, machaeridiol C] | > 50 | > 50 | 47 (≈ 130 µM) | 11.2 | 12 |  | 2 | 2.5 | 8.7 | 8.8 | 26.6 | 6.8 | > 50 | 6.7 | 31.7 | 7.2 | 57.9 | > 50 | inactive | > 1.11 | Δ pKi [15]: 4.91; Ki [15]: 12.2 ± 1.19 µM; Ki [19]: 4.01 ± 0.65 µM; solubility [25]: < 33.3 µM
4 | C[C@@H]1C[C@@H]2c3c(O)cc(-c4cc5ccccc5o4)cc3OC(C)(C)[C@H]2C[C@H]1O [compound 4, machaeriol D] |  |  |  | 22 | 25 | 4.5 | 20 | 11 | 24 | 21 | 28.2 | 18 | 20 | 21 | 16.8 | 25 | 81.5 | > 50 |  | > 1.3 | Affinity for CB1 receptor (in words) ([10]; receptor displacement assay): little or no affinity
5 | C=C(C)[C@H]1CC[C@H](C)C[C@@H]1c1c(O)cc(/C=C/c2ccccc2)cc1O [compound 5, machaeridiol A] | > 50 | > 50 | > 50 | 10.5 | > 50 | 7.8 | 8.1 | 4.5 | 10 | 11 | 43.3 | 9.5 | 3.5 | 11 | 45.6 | 11.8 | 65.4 | > 50 | inactive | > 1.77 | Ki [15]: 9.41 ± 1.02 µM; Ki [19]: 16.8 ± 3.31 µM; solubility [25]: < 33.3 µM
6 | C[C@H]1CC[C@H]2[C@H](C1)c1c(O)cc(-c3cc4ccccc4o3)cc1OC2(C)C [compound 2, machaeriol B] | > 50 |  |  | 11.3 | 7.3 |  | 8.4 | 11 | 8.8 | 6.9 | 61.7 | 7.7 | 9.1 | 10 | 37.6 | 9.5 | 13.7 | > 50 | inactive |  | Affinity for CB1 (in words) [20]: insignificant affinity; also recorded: did not show any affinity
